Test results as given in ChEMBL document CHEMBL1201862, “PubChem BioAssay data set” (2004).
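48-hour exposure; five concentrations; linearly interpolated endpoints. The concentration for 50% growth inhibition is given as GI50.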 The source made the active and inactive calls. Rule as the data show it: active = GI50 up to about 1.1 µM and inactive = higher.

How the values were obtained:
Assay in all cases: DTP human tumour cell line panel, 48 h
UO-31 = test system: UO-31
SF-268 = test system: SF-268
COLO 205 = test system: COLO 205
MOLT-4 = test system: MOLT-4
SNB-75 = test system: SNB-75
RXF 393 = test system: RXF 393
CCRF-CEM = test system: CCRF-CEM
NCI-H460 = test system: NCI-H460
LOX IMVI = test system: LOX IMVI
NCI-H23 = test system: NCI-H23
EKVX = test system: EKVX
NCI/ADR-RES = test system: NCI/ADR-RES
HCT-15 = test system: HCT-15
IGROV-1 = test system: IGROV-1
K562 = test system: K562
OVCAR-4 = test system: OVCAR-4
SK-MEL-2 = test system: SK-MEL-2
HT-29 = test system: HT-29
SK-MEL-28 = test system: SK-MEL-28
SR = test system: SR
DU-145 = test system: DU-145
NCI-H226 = test system: NCI-H226
RPMI-8226 = test system: RPMI-8226
HOP-62 = test system: HOP-62
MDA-MB-231 = test system: MDA-MB-231
T47D = test system: T47D
CAKI-1 = test system: CAKI-1
A498 = test system: A498
SF-295 = test system: SF-295
SNB-19 = test system: SNB-19
MDA-N = test system: MDA-N
M14 = test system: M14
SF-539 = test system: SF-539
MDA-MB-435 = test system: MDA-MB-435
TK-10 = test system: TK-10
HL-60 = test system: HL-60
SK-OV-3 = test system: SK-OV-3
HOP-92 = test system: HOP-92
KM12 = test system: KM12
OVCAR-8 = test system: OVCAR-8
Hs-578T = test system: Hs-578T
OVCAR-3 = test system: OVCAR-3
786-0 = test system: 786-0
A549 = test system: A549
UACC-62 = test system: UACC-62
OVCAR-5 = test system: OVCAR-5
Malme-3M = test system: Malme-3M
HCT-116 = test system: HCT-116
UACC-257 = test system: UACC-257
ACHN = test system: ACHN
SW-620 = test system: SW-620
PC-3 = test system: PC-3
SK-MEL-5 = test system: SK-MEL-5
SN12C = test system: SN12C
HCC 2998 = test system: HCC 2998
MCF7 = test system: MCF7
U-251 = test system: U-251
NCI-H522 = test system: NCI-H522

CC12CCC(CC(=O)/C1=C(/Br)I)C2(C)C (configuration not stated) was tested, and the GI50 (UO-31) was 18.2 µM (inactive), the GI50 (SF-268) was 14.6 µM (inactive) and the GI50 (COLO 205) was 17.2 µM (inactive). For the same compound, the GI50 (MOLT-4) was 7.18 µM (inactive), the GI50 (SNB-75) was 16.3 µM (inactive) and the GI50 (RXF 393) was 4.6 µM (inactive). For the same compound, the GI50 (CCRF-CEM) was 14.3 µM (inactive), the GI50 (NCI-H460) was > 100 µM (inactive) and the GI50 (LOX IMVI) was 0.0789 µM (active). The GI50 (NCI-H23) was 13.5 µM (inactive), the GI50 (EKVX) was 19.5 µM (inactive) and the GI50 (NCI/ADR-RES) was 15.3 µM (inactive). The GI50 (HCT-15) was 10.9 µM, the GI50 (IGROV-1) was 16.9 µM (inactive) and the GI50 (K562) was 11.2 µM (inactive). The GI50 (OVCAR-4) was 15.1 µM (inactive), the GI50 (SK-MEL-2) was 13.7 µM (inactive) and the GI50 (HT-29) was 11.4 µM (inactive). The GI50 (SK-MEL-28) was 16.2 µM (inactive), the GI50 (SR) was 15.8 µM (inactive) and the GI50 (DU-145) was 17.7 µM (inactive). The GI50 (NCI-H226) was 13.8 µM (inactive), the GI50 (RPMI-8226) was 6.25 µM (inactive) and the GI50 (HOP-62) was 17.9 µM (inactive). For the same compound, the GI50 (MDA-MB-231) was 5.57 µM (inactive), the GI50 (T47D) was 21.7 µM (inactive) and the GI50 (CAKI-1) was 16.9 µM (inactive). The GI50 (A498) was 19.3 µM (inactive), the GI50 (SF-295) was 0.31 µM (active) and the GI50 (SNB-19) was 15.3 µM (inactive). The GI50 (MDA-N) was 12.2 µM (inactive), the GI50 (M14) was 14.4 µM (inactive) and the GI50 (SF-539) was 15.7 µM (inactive). For the same compound, the GI50 (MDA-MB-435) was 13.7 µM (inactive), the GI50 (TK-10) was 18.8 µM (inactive) and the GI50 (HL-60) was 3.43 µM (inactive). The GI50 (SK-OV-3) was 20.7 µM (inactive), the GI50 (HOP-92) was 17.3 µM (inactive) and the GI50 (KM12) was 17.9 µM (inactive). For the same compound, the GI50 (OVCAR-8) was 17.8 µM (inactive), the GI50 (Hs-578T) was 18.7 µM (inactive) and the GI50 (OVCAR-3) was 13.6 µM (inactive). The GI50 (786-0) was 16.1 µM (inactive), the GI50 (A549) was 14.6 µM (inactive) and the GI50 (UACC-62) was 14.5 µM (inactive). The GI50 (OVCAR-5) was 2.02 µM (inactive), the GI50 (Malme-3M) was 12.7 µM (inactive) and the GI50 (HCT-116) was 12.4 µM (inactive). The GI50 (UACC-257) was 16.2 µM (inactive), the GI50 (ACHN) was 18.2 µM (inactive) and the GI50 (SW-620) was 17 µM (inactive). For the same compound, the GI50 (PC-3) was 11.1 µM (inactive), the GI50 (SK-MEL-5) was 11.4 µM (inactive) and the GI50 (SN12C) was 15.8 µM (inactive).

Cc1cc(N(CCC#N)CCC#N)ccc1/C=N/NC(=O)c1cc(Cl)ccc1O was tested, and the GI50 (SF-268) was 72.6 µM (inactive), the GI50 (COLO 205) was > 100 µM (inactive) and the GI50 (MOLT-4) was 36.9 µM (inactive). For the same compound, the GI50 (SNB-75) was 34.1 µM (inactive), the GI50 (RXF 393) was > 100 µM (inactive) and the GI50 (CCRF-CEM) was > 100 µM (inactive). The GI50 (NCI-H460) was > 100 µM (inactive), the GI50 (NCI-H23) was > 100 µM (inactive) and the GI50 (EKVX) was > 100 µM (inactive). The GI50 (NCI/ADR-RES) was > 100 µM (inactive), the GI50 (HCT-15) was > 100 µM and the GI50 (IGROV-1) was > 100 µM (inactive). The GI50 (OVCAR-4) was > 100 µM (inactive), the GI50 (SK-MEL-2) was > 100 µM (inactive) and the GI50 (HT-29) was > 100 µM (inactive). For the same compound, the GI50 (SR) was > 100 µM (inactive), the GI50 (DU-145) was > 100 µM (inactive) and the GI50 (HCC 2998) was > 100 µM (inactive). For the same compound, the GI50 (NCI-H226) was > 100 µM (inactive), the GI50 (HOP-62) was 60.3 µM (inactive) and the GI50 (MDA-MB-231) was > 100 µM (inactive). The GI50 (T47D) was > 100 µM (inactive), the GI50 (CAKI-1) was > 100 µM (inactive) and the GI50 (A498) was > 100 µM (inactive). The GI50 (SF-295) was 54.7 µM (inactive), the GI50 (MDA-N) was > 100 µM (inactive) and the GI50 (M14) was > 100 µM (inactive). The GI50 (SF-539) was > 100 µM (inactive), the GI50 (MCF7) was > 100 µM (inactive) and the GI50 (MDA-MB-435) was > 100 µM (inactive). The GI50 (TK-10) was > 100 µM (inactive), the GI50 (HL-60) was 69.2 µM (inactive) and the GI50 (U-251) was 49.3 µM (inactive). For the same compound, the GI50 (SK-OV-3) was > 100 µM (inactive), the GI50 (OVCAR-8) was > 100 µM (inactive) and the GI50 (Hs-578T) was 59.7 µM (inactive). The GI50 (OVCAR-3) was > 100 µM (inactive), the GI50 (786-0) was > 100 µM (inactive) and the GI50 (A549) was > 100 µM (inactive). For the same compound, the GI50 (UACC-62) was > 100 µM (inactive), the GI50 (OVCAR-5) was > 100 µM (inactive) and the GI50 (Malme-3M) was > 100 µM (inactive). The GI50 (HCT-116) was > 100 µM (inactive), the GI50 (UACC-257) was > 100 µM (inactive) and the GI50 (PC-3) was > 100 µM (inactive). For the same compound, the GI50 (SK-MEL-5) was > 100 µM (inactive), the GI50 (NCI-H522) was 37.3 µM (inactive) and the GI50 (SN12C) was > 100 µM (inactive).

In the case of COc1cccc(C2c3cc4c(cc3OC(N3CCCC3)C2C)OCO4)c1OC (configuration not stated), the GI50 (UO-31) is reported as 2.27 µM (inactive), the GI50 (SF-268) is reported as 2.89 µM (inactive) and the GI50 (COLO 205) is reported as 3.46 µM (inactive). For the same compound, the GI50 (MOLT-4) was 2.77 µM (inactive), the GI50 (CCRF-CEM) was 2.77 µM (inactive) and the GI50 (NCI-H460) was 3.17 µM (inactive). For the same compound, the GI50 (LOX IMVI) was 1.96 µM (inactive), the GI50 (NCI-H23) was 4.37 µM (inactive) and the GI50 (EKVX) was 6.49 µM (inactive). The GI50 (NCI/ADR-RES) was 2.32 µM (inactive), the GI50 (HCT-15) was 2.25 µM and the GI50 (IGROV-1) was 2.78 µM (inactive). The GI50 (K562) was 3.17 µM (inactive), the GI50 (SK-MEL-2) was 3.89 µM (inactive) and the GI50 (HT-29) was 2.65 µM (inactive). The GI50 (SR) was 3.03 µM (inactive), the GI50 (DU-145) was 2.01 µM (inactive) and the GI50 (RPMI-8226) was 3.61 µM (inactive). The GI50 (HOP-62) was 8.17 µM (inactive), the GI50 (T47D) was 2.47 µM (inactive) and the GI50 (CAKI-1) was 0.561 µM (active). The GI50 (SF-295) was 1.92 µM (inactive), the GI50 (SNB-19) was 1.58 µM (inactive) and the GI50 (MDA-N) was 4.76 µM (inactive). For the same compound, the GI50 (M14) was 9.08 µM (inactive), the GI50 (SF-539) was 3.33 µM (inactive) and the GI50 (MCF7) was 4.58 µM (inactive). For the same compound, the GI50 (MDA-MB-435) was 4.06 µM (inactive), the GI50 (TK-10) was 5.74 µM (inactive) and the GI50 (KM12) was 3.08 µM (inactive). For the same compound, the GI50 (OVCAR-8) was 2.96 µM (inactive), the GI50 (Hs-578T) was 1.59 µM (inactive) and the GI50 (OVCAR-3) was 1.66 µM (inactive). For the same compound, the GI50 (786-0) was 3.89 µM (inactive), the GI50 (A549) was 3.53 µM (inactive) and the GI50 (UACC-62) was 5.78 µM (inactive). For the same compound, the GI50 (OVCAR-5) was 3.67 µM (inactive), the GI50 (HCT-116) was 1.64 µM (inactive) and the GI50 (UACC-257) was 1.72 µM (inactive). For the same compound, the GI50 (ACHN) was 2.49 µM (inactive), the GI50 (SW-620) was 1.65 µM (inactive) and the GI50 (PC-3) was 4.48 µM (inactive). For the same compound, the GI50 (SK-MEL-5) was 2.87 µM (inactive), the GI50 (NCI-H522) was 3.69 µM (inactive) and the GI50 (SN12C) was 3.02 µM (inactive).
